Data on 90 molecules can be found in a melting point compilation (Tetko et al.; mined from patent text by program, amines drawn as free bases though some values may be those of a salt).

A value given as a limit tells only on which side of the number the result lay.

`Cc1oc(-c2cccc(CCc3ccccc3)c2)nc1CCOc1ccc(OC(C)(C)C(=O)O)cc1`: the melting point (in general, the temperature of the solid-liquid transition) was in the range of 124 to 125 °C.

In the case of `CC(=O)SCC(Cc1ccccc1)C(=O)Nc1cc(C(=O)O)ccc1CN1CCCC1` (stereo not given), the melting point lay in the range of 95 to 98 °C.

Turning to `Cc1c(-c2cc(F)cc(C(F)(F)F)c2)ccc2nc(N)nc(N)c12`, the melting point was in the range of 225 to 226 °C.

`Cc1cc2c(cc1C)SC(CCCN1CCN(c3ccc(F)cc3)CC1)C(=O)N2` (stereo not given) came in with a melting point of 161 to 162 °C.

In turn, `CC(C)C[C@H]1C(=O)NC2CCC(=O)N21` (stereo not given in full) gave a melting point of 156 to 157 °C.

`Cc1cc(Nc2ccc(O)cc2)c2[nH]ncc2n1`: the melting point was 174 to 176 °C.

`Cc1ccc(S(=O)(=O)CC(=O)NN=C2C(=O)Nc3ccc(I)cc32)cc1` returned a melting point of 257 °C.

As to `COC(=O)c1ccc2c(c1)OCCO2`, the melting point is 43 to 45 °C.

Take `O=c1ccc(Oc2ccc(Cl)cc2)n[nH]1`: the melting point was 202 °C.

`O=C1CCCc2c1c1cc(Cl)ccc1n2Cc1ccc(F)cc1` came in with a melting point of 207 to 208 °C.

`CC(C)C(C)CCC(C)C1CC(=O)C2=C3C(=O)CC4CC(OC(=O)c5ccccc5)CCC4(C)C3CCC21C` (stereo not given): the melting point is 176 to 177 °C.

With `CC1(C)COC(=N)N1c1nc(-c2ccc(C#N)cc2)cs1`, the melting point lay in the range of 158 to 161 °C.

As for `COCCOc1ccc2c(c1)C1(CO2)C(=O)N(Cc2ccccn2)c2ccccc21` (stereo not given), the melting point was in the range of 140 to 142 °C.

Consider `O=[N+]([O-])c1cc(C(F)(F)F)ccc1-c1ccno1`, for which the melting point lay in the range of 62 to 63 °C.

The molecule `CCn1ncc2c1ncc1c(=O)n(CCN3CCOCC3)c3cc(C)nn3c12` came in with a melting point of 140 to 141 °C.

`OCc1cn(-c2ccc(C(F)(F)F)cn2)nc1C1CCCCC1` showed a melting point of 138 to 139 °C.

For `CCC(CC)(CC(=O)Nc1cccc(OCc2ccc3ccc(C(F)(F)F)cc3n2)c1)C(=O)O`, the melting point lay within 85 to 86 °C.

Turning to `Cc1ccc(Cl)cc1NC(=S)n1c(C)c(C)c2ccccc21`, the melting point was determined as 115 °C.

Molecule `CC(C)CC(Oc1c(Br)cc(-c2ccc(-c3c(Cc4ccccc4)oc4ccccc34)cc2)cc1Br)C(=O)O` (stereo not given) registered a melting point of 81 to 83 °C.

For `OC(CCc1ccc(OCc2ccccc2)c(OCc2ccccc2)c1)C1CCCCC1` (stereo not given), the melting point was 107 to 108 °C.

In the case of `CCOC(=O)C1=C(N=CN(C)C)NC(C)=C(C(=O)OC)C1c1ccccc1Cl` (stereo not given), the melting point is 137 °C.

The molecule `CC1(C(=O)N2CCN(S(=O)(=O)c3ccc(Br)cc3)CC2)CCN(c2ccncn2)CC1` displayed a melting point of 217 to 218 °C.

On to `Cn1c(=S)n(CCN2CCC(Nc3nc4ccccc4n3Cc3ccco3)CC2)c(=O)c2ccccc21`, for which the melting point amounted to 188 °C.

With `CN(C)c1ccccc1C(=O)N1CCC(=O)c2ccc(Cl)cc21`, the melting point lay within 85.5 to 89 °C.

In turn, `O=C(Nc1cc(N2CCNCC2)cc(C(F)(F)F)c1)c1cccc2cc(Oc3ccnc(NC(=O)C4CC4)c3)ccc12` displayed a melting point of 244 to 247 °C.

Regarding `COC(=O)C(CNC(C)=O)C1CCC(c2ccccc2)CC1` (stereo not given), the melting point was in the range of 75 to 80 °C.

In the case of `NCCC(O)(c1ccccc1)c1ccccc1`, the melting point lay within 134 to 136 °C.

On to `COC(=O)CCn1c(=O)n(CCN2CCN(c3ccccc3)CC2)c(=O)c2cscc21`, for which the melting point lay in the range of 133 to 134 °C.

The molecule `CC(C)(C)[Si](C)(C)Oc1cccc(C2(Br)C(=O)NC(=O)NC2=O)c1` had a melting point of 170 to 172 °C.

In turn, `Cn1cc(-c2ccncn2)cc(Br)c1=O` displayed a melting point of 208 to 210 °C.

In turn, `CCCC(N)CC(=O)O` (stereo not given) came in with a melting point of 203 °C.

As for `Cc1ccc(N)cc1Nc1nccc(-c2cncc(Br)c2)n1`, the melting point stood at 130 °C.

Molecule `CCCCCC(COc1ccc(C(=O)O)cc1)c1ccc2c(c1)C(C)(C)CCS2` (racemic) returned a melting point of 168 to 169 °C.

On to `C[C@]1(CN2CCN(c3cc(-c4ccccc4)nc(-c4ccccc4)n3)CC2)Cn2cc([N+](=O)[O-])nc2O1`, for which the melting point fell in the range of 202 to 205 °C.

`COc1c(C)cc(N2CCN(S(=O)(=O)c3ccc(C)cc3)CC2)cc1C` returned a melting point of 174 °C.

Regarding `Cc1nccn1-c1nc(-c2ccc(Cl)cc2)c(CCCN2C(=O)COC2=O)o1`, the melting point lay within 152 to 153 °C.

In turn, `CCCCCCCCCCCCc1ccc(N=C(C)c2ccccc2)cc1` came in with a melting point of 47 °C.

The molecule `CCCCONC(=O)c1nc(-c2ccc(Cl)c(OC)c2F)cc(N)c1Cl` gave a melting point of 130 to 132 °C.

As for `CC(C)C[C@H](NC(=O)c1ccccc1)C(=O)N[C@@H](C(C)C)[C@@H](O)c1c(-c2ccccc2)c1=O`, the melting point was in the range of 150 to 154 °C.

With `COc1c2c(c(OC)c(OC)c1OC)CCC(CCn1ccccc1=O)CC2`, the melting point was in the range of 84 to 87 °C.

For the molecule `CC(C)(CO)NC(=S)NC(=O)c1ccccc1`, the melting point was 116 to 118 °C.

In turn, `N#CCCn1nc(-c2ccccc2)ccc1=O` showed a melting point of 103 to 104 °C.

In turn, `CC(C)c1cnc(NC(=O)Cc2csc(N)n2)s1` gave a melting point of 201 to 203 °C.

`CS(=O)(=O)c1ccc(-c2c(C(=O)O)c3cccccc-3c2-c2ccccc2)cc1` came in with a melting point of 168 to 169 °C.

`Cc1cnc2c(NC(=O)c3c(Cl)cccc3Cl)cccc2c1N1CCNC1=O` registered a melting point above 250 °C.

As for `BrCc1nc2cc(Br)ccc2s1`, the melting point worked out at 107 °C.

For the molecule `O=C(Cn1c(-c2ccc(Cl)cc2)nc2cccnc21)N1CCC1`, the melting point was 196 to 197 °C.

In turn, `COc1cc(OC)c(C23CC4CC(CC(C4)C2)C3)cc1C(=O)Oc1ccc(C(=O)O)cc1` had a melting point of 236 to 238 °C.

`COc1cc(OC)c2nccc(O)c2c1`: the melting point was in the range of 221 to 224 °C.

Consider `Nc1cccc(C2=NCCO2)c1`, for which the melting point was in the range of 126 to 128 °C.

Turning to `O=C1NC(=S)SC1=Cc1ccc2c(c1)N(OCc1ccc(C(F)(F)F)cc1)C(=O)CO2`, the melting point was above 300 °C.

In turn, `NCCOCC(O)c1cccc2ccccc12` (stereo not given) showed a melting point of 89.5 to 92 °C.

`CCCNc1ccc(Cl)cc1Cl` had a melting point of 121 °C.

With `Oc1onc(CCCc2cccc(OCc3ccccc3)c2)c1C(c1ccccc1)c1ccccc1`, the melting point lay within 89 to 90.5 °C.

Take `C#CCOc1cc(Oc2ccc(Cl)cc2Cl)ncn1`: the melting point came out at 107 °C.

Turning to `OCc1cnc2c(Cl)cccc2c1O`, the melting point was above 300 °C.

Regarding `S=C(Cc1ccccc1)N1CCOCC1`, the melting point lay in the range of 115 to 116 °C.

`CNC(=O)C(=NOC)c1ccccc1COc1ccc(Sc2ccccc2)cn1` had a melting point of 95 to 96 °C.

Regarding `COC(=O)Cc1ccc(OS(=O)(=O)C(F)(F)F)c([N+](=O)[O-])c1`, the melting point fell in the range of 44 to 45 °C.

With `C#CCNC1=Nc2c(c(C)nn2C)C(c2ccccc2)=NC1`, the melting point was in the range of 193 to 195 °C.

In the case of `CC(=O)Nc1ccc(-c2nc3ccccc3s2)cc1`, the melting point was 227 to 229 °C.

`CCOc1cc(-c2c(C(=O)OC)c(C(=O)OC)c(O)c3cc(OC)c(OC)c(OC)c23)ccc1OC` gave a melting point of 158 °C.

Molecule `CC=C(NC(=O)CC(C)C)C(=O)O` yielded a melting point of 172 to 174 °C.

For `COc1cccc(C=C2c3ccccc3CCc3ccccc32)c1F`, the melting point is 149 °C.

For `COc1cc(Nc2c(C#N)cnc3cc(OCC4CCN(C)CC4)ccc23)c(Cl)cc1Cl`, the melting point lay in the range of 191 to 193 °C.

For the molecule `COc1nc(N)nc(-c2ccccc2)n1`, the melting point was 159 to 160 °C.

Consider `Nc1cccc(N)c1Oc1ccccc1`, for which the melting point lay in the range of 110 to 111 °C.

On to `Cc1ccc2c3c(ccc2n1)OC[C@H](CN1CCN(c2cccc(C)c2C)CC1)O3`, for which the melting point lay within 112 to 113 °C.

As to `O=C(CCS)Nc1ccc(Nc2ccccc2)cc1`, the melting point fell in the range of 98.3 to 99.5 °C.

Regarding `NC(CC(=O)c1ccc(N2CCN(c3ccncc3)CC2)cc1)C(=O)O` (stereo not given), the melting point lay in the range of 263 to 264 °C.

Consider `O=C(O)CC[C@H](NC(=O)Oc1ccc(N(CCCl)CCCl)cc1)C(=O)O`, for which the melting point was in the range of 87 to 89 °C.

In turn, `OCC12CCCN(CCC1)C2` came in with a melting point of 64 to 65.5 °C.

In turn, `O=C(O)Cn1nnc(-c2ccc3c(c2)S(=O)(=O)c2ccccc2C3=O)n1` displayed a melting point of 194 to 195 °C.

Consider `CCCCc1cnc(C(N)=O)cc1N`, for which the melting point lay within 103 to 105 °C.

The molecule `CCCCc1nc2c(N)nc3ccccc3c2n1CCCCCCCCNS(=O)(=O)c1ccccc1` registered a melting point of 143 to 144 °C.

`CCOC(=O)c1ncn2c1[C@@H]1CCN1C(=O)c1c-2ccc(F)c1Cl` came in with a melting point of 161 to 163 °C.

`Cc1c(-c2ccccc2)oc2c(CSCCCl)cccc2c1=O` came in with a melting point of 82 to 83 °C.

As for `O=C1CCN(Cc2cccnc2)CC1C(c1ccccc1)c1ccccc1` (stereo not given), the melting point was in the range of 121 to 122 °C.

As to `C#Cc1ccc(-c2ccc(-c3ccc(C#C)cc3)n2-c2ccc(C)cc2)cc1`, the melting point is 235 to 237 °C.

Molecule `CCCN(c1nc(-c2ccc(OC)cc2Cl)c(C)s1)c1cc(CO)ccc1OC` gave a melting point of 115 °C.

The molecule `Cc1cccc2c(=O)nc(-c3cccc(C(=O)NCCCCCCNC(=O)OC(C)(C)C)n3)sc12` registered a melting point of 171 to 172 °C.

`CC(C)(C)OC(=O)CS(=O)(=O)c1cccc(-c2nc(=O)c3ccccc3s2)n1` registered a melting point of 159 to 160 °C.

`CCN(CC)C(=O)c1cc(S(=O)(=O)Cc2ccccc2)c(N2CCC(c3ccccc3)CC2)cc1N(CC)CCN(C)C` showed a melting point of 117 to 118 °C.

`OC(CNCCCCCCOCCCCc1ccccc1)c1ccc2c(n1)COC(c1ccccc1)O2` (stereo not given): the melting point lay in the range of 67 to 73 °C.

Consider `NCCCNc1cccc2[nH]ncc12`, for which the melting point lay within 154 to 163 °C.

In turn, `O=C(NCCNCC1COc2ccccc2O1)C12CC3CC(CC(C3)C1)C2` (stereo not given) had a melting point of 147 to 149 °C.

As to `CS(=O)(=O)c1ccc(C(=O)c2cc(-c3ccc(Cl)cc3)c(N3CCOCC3)s2)cc1`, the melting point was in the range of 242 to 243 °C.

The molecule `COC(=O)c1cc(OCCCCCCOc2ccc(-c3ccccc3)cc2)ccc1OCc1ccccc1` returned a melting point of 85 to 87 °C.

On to `CCOC(=O)C(Cc1ccc(OC)cc1)c1cc2cc(C#N)ccc2s1` (stereo not given), for which the melting point lay in the range of 93 to 96 °C.

In turn, `Cc1nc(N2CCN(c3ccc(F)cc3)CC2)c(C#N)nc1-c1ccccc1` showed a melting point of 117 to 120 °C.
